Values quoted from earlier work in patent US20240415829A1, “METHODS AND COMPOSITIONS FOR THE TREATMENT OF DRUG OVERDOSE” (priority 2023, published 2024).

Tests used:
[1] = results from other studies; individuals with OUD, tobacco use disorder, AUD
[2] = xylazine 0.15 mg/kg, sheep 58-69 kg
[3] = human clinical trials

Compound | doses supported for safe use in humans [1] | sedation, respiration, blood pressure and heart rate effects [2] | adverse effects leading to termination of human trials [3]
COC(=O)[C@@H]1[C@H]2C[C@H]3c4[nH]c5ccccc5c4CCN3C[C@@H]2CC[C@@H]1O [yohimbine] | up to 60 mg | – | –
Cc1cccc(C)c1NC1=NCCCS1 [xylazine] | – | significant sedation/decreased respiration and decreased blood pressure/heart rate | severe hypotension and central nervous system (CNS) depressant effects
